What was measured:
[1] = biological target: VIM-1 (Pseudomonas aeruginosa, UniProt A0A0F7KYQ8); assay: Enzyme activity: determination of IC50, fluorescence assay with CCF2-FA substrate; format: biochemical; conditions: VIM-1 enzyme 30 pM, CCF2-FA 1.25 μM, 2 hours at 25° C.; read-out: VIM1 IC50
Method in brief: (§1)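 Final enzyme levels differed by target: 1 pM NDM-1, 2 pM IMP-1, 30 pM VIM-1. Each was incubated 2 hours at 25° C with test compound and 1.25 μM CCF2-FA, and 460 nm fluorescence (405 nm excitation) was fitted by 4-parameter curve to obtain IC50.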

[2] = biological target: NDM-1 (Klebsiella pneumoniae, UniProt C7C422); assay: as above; format: biochemical; conditions: NDM-1 enzyme 1 pM, CCF2-FA 1.25 μM, 2 hours at 25° C.; read-out: NDM1 IC50
Sequence of NDM-1 (C7C422 29-270, looked up, species assumed): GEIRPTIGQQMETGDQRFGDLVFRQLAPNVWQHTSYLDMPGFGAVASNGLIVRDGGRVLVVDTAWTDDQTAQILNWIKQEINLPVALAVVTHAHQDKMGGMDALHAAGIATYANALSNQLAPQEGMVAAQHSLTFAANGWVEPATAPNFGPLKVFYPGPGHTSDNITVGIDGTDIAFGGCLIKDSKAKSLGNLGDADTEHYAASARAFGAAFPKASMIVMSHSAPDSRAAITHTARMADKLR
Method in brief: as §1

[3] = biological target: IMP-1 (Serratia marcescens, UniProt P52699); assay: as above; format: biochemical; conditions: IMP-1 enzyme 2 pM, CCF2-FA 1.25 μM, 2 hours at 25° C.; read-out: IMP1 IC50
Sequence of IMP-1 (P52699 19-246, looked up, species assumed): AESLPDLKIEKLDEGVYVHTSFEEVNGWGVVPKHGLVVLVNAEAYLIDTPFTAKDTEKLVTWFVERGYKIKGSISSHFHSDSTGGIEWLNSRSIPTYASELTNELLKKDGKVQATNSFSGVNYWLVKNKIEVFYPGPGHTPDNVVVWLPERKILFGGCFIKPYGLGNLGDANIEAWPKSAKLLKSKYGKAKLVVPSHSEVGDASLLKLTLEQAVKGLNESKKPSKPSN
Method in brief: as §1

[4] = tested on: Klebsiella pneumoniae expressing VIM-1 (IHMA599644); assay: Antibiotic potentiation activity: synergistic concentration (MITC95) with imipenem, growth by OD600; format: cell-based; conditions: K. pneumoniae IHMA599644 (VIM-1), 95% inhibition of growth
Method in brief: (§2)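 Colonies from overnight agar plates (35 °C) were suspended in saline and diluted 1:100 into 1.1× CAMHB. Inhibitor (final 200 μM to 0.195 μM) was combined with imipenem at 1 or 4 μg/ml, incubated 22–24 h at 35 °C, and absorbance read; MITC95 is the lowest inhibitor concentration giving 95% growth inhibition.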

[5] = tested on: Escherichia coli expressing NDM-1 (CLB30016); assay: as above; format: cell-based; conditions: E. coli CLB30016 (NDM-1), 95% inhibition of growth
Method in brief: as §2

[6] = tested on: Serratia marcescens expressing IMP-1 (CL5741); assay: as above; format: cell-based; conditions: S. marcescens CL5741 (IMP-1), 95% inhibition of growth
Method in brief: as §2

Row | SMILES | IC50 [1] | IC50 [2] | IC50 [3] | VIM1 KP599644 MITC95 [4] | NDM1 EC30016 MITC95 [5] | IMP1 SM5741 MITC95 [6]
1 | CCC[C@H](C(=O)O)[C@H](Cc1ccccc1-c1ccc(C(N)=O)cc1)c1nn[nH]n1 [Example 394, (2S)-2-[(1S)-2-(4′-carbamoylbiphenyl-2-yl)-1-(2H-tetrazol-5-yl)ethyl]pentanoic acid] | 3.9 nM | 2.2 nM | 450 nM | 38 µM | 4.7 µM | 25 µM
2 | CCC[C@H](C(=O)O)[C@H](Cc1ccccc1-c1ccc(C2CCNCC2)cc1)c1nn[nH]n1 [Example 395, (2S)-2-[(1S)-2-(4′-piperidin-4-ylbiphenyl-2-yl)-1-(2H-tetrazol-5-yl)ethyl]pentanoic acid] | 0.48 nM | 0.1 nM | 120 nM | 16 µM | 6.2 µM | 6.25 µM
3 | CCC[C@H](C(=O)O)[C@H](Cc1ccccc1-c1cccnc1)c1nn[nH]n1 [Example 396, (2S)-2-[(1S)-2-(2-pyridin-3-ylphenyl)-1-(2H-tetrazol-5-yl)ethyl]pentanoic acid] | 18 nM | 9.2 nM | 2800 nM | 50 µM | 9.4 µM | 75 µM
4 | CCC[C@H](C(=O)O)[C@H](Cc1ccccc1-c1ccncc1)c1nn[nH]n1 [Example 397, (2S)-2-[(1S)-2-(2-pyridin-4-ylphenyl)-1-(2H-tetrazol-5-yl)ethyl]pentanoic acid] | 16 nM | 13 nM | 5000 nM | 75 µM | 6.2 µM | 200 µM
5 | CCC[C@H](C(=O)O)[C@H](Cc1ccccc1-c1ccc(N)nc1)c1nn[nH]n1 [Example 398, (2S)-2-[(1S)-2-[2-(6-aminopyridin-3-yl)phenyl]-1-(2H-tetrazol-5-yl)ethyl]pentanoic acid] | 10 nM | 1.6 nM | 1100 nM | 25 µM | 3.1 µM | 75 µM
6 | CCC[C@H](C(=O)O)[C@H](Cc1ccccc1-c1cccc(C(N)=O)c1)c1nn[nH]n1 [Example 399, (2S)-2-[(1S)-2-(3′-carbamoylbiphenyl-2-yl)-1-(2H-tetrazol-5-yl)ethyl]pentanoic acid] | 1.6 nM | 1.4 nM | 430 nM | 25 µM | 6.2 µM | 25 µM
7 | CC(C)C[C@H](C(=O)O)[C@H](Cc1ccc(Oc2cccc(CN)c2)nc1)c1nn[nH]n1 [Example 400, (2S)-2-[(1S)-2-{6-[3-(aminomethyl)phenoxy]pyridin-3-yl}-1-(2H-tetrazol-5-yl)ethyl]-4-methylpentanoic acid] | 42 nM | 340 nM | 750 nM | 50 µM | 12.5 µM | 25 µM
8 | CCC[C@H](C(=O)O)[C@H](Cc1ccccc1-c1ccc(S(N)(=O)=O)cc1)c1nn[nH]n1 [Example 401, (2S)-2-[(1S)-2-(4′-sulfamoylbiphenyl-2-yl)-1-(2H-tetrazol-5-yl)ethyl]pentanoic acid] | 13 nM | 3.9 nM | 1900 nM | 50 µM | 9.4 µM | 50 µM
9 | CCC[C@H](C(=O)O)[C@H](Cc1ccccc1-c1ccc(NS(C)(=O)=O)cc1)c1nn[nH]n1 [Example 402, (2S)-2-[(1S)-2-{4′-[(methylsulfonyl)amino]biphenyl-2-yl}-1-(2H-tetrazol-5-yl)ethyl]pentanoic acid] | 1.5 nM | 0.095 nM | 230 nM | 25 µM | 3.1 µM | 12.5 µM
10 | CCC[C@H](C(=O)O)[C@H](Cc1ccccc1-c1ccc(CO)cc1)c1nn[nH]n1 [Example 403, (2S)-2-[(1S)-2-[4′-(hydroxymethyl)biphen-yl-2-yl]-1-(2H-tetrazol-5-yl)ethyl]pentanoic acid] | 3.3 nM | 2.4 nM | 550 nM | 50 µM | 9.4 µM | 18.8 µM
11 | CC(C[C@H](C(=O)O)[C@H](Cc1ccc(N)nc1)c1nnn[nH]1)c1ccccc1 (stereo partly drawn) [Example 404, (2S)-2-((S)-2-(6-aminopyridin-3-yl)-1-(1H-tetrazol-5-yl)ethyl)-4-phenylpentanoic acid] | 21.9 nM | 228 nM | 622 nM | 75 µM | 18.75 µM | 75 µM
12 | CCC[C@H](C(=O)O)[C@H](CCc1ccc(N)nc1)c1nnn[nH]1 [Example 405, (2S,3S)-5-(6-aminopyridin-3-yl)-2-propyl-3-(1H-tetrazol-5-yl)pentanoic acid] | 39.6 nM | 2830 nM | 14800 nM | 12.5 µM | 12.5 µM | 200 µM
13 | CCC[C@H](C(=O)O)[C@H](CCCc1ccc(N)nc1)c1nnn[nH]1 [Example 406, (2S,3S)-6-(6-aminopyridin-3-yl)-2-propyl-3-(1H-tetrazol-5-yl)hexanoic acid] | 14.9 nM | 428 nM | 815 nM | 6.25 µM | 6.25 µM | 37.5 µM
14 | CC(C)C[C@H](C(=O)O)[C@H](Cc1cc(Cl)nc(NCCO)c1)c1nnn[nH]1 [Example 407] | 2.22 nM | 34.4 nM | 923 nM | 50 µM | 18.75 µM | 75 µM
15 | CCC[C@H](C(=O)O)[C@H](Cc1ccc(C2CCNCC2)nc1)c1nnn[nH]1 [Example 408, (S)-2-((S)-2-(6-(piperidin-4-yl)pyridin-3-yl)-1-(1H-tetrazol-5-yl)ethyl)pentanoic acid] | 6.5 nM | 250 nM | 3450 nM | 25 µM | 7.813 µM | 75 µM
16 | CCC[C@H](C(=O)O)[C@H](Cc1ccc(C2CCNC2)nc1)c1nnn[nH]1 (stereo partly drawn) [Example 409, (2S)-2-((1S)-2-(6-(pyrrolidin-3-yl)pyridin-3-yl)-1-(1H-tetrazol-5-yl)ethyl)pentanoic acid] | 14 nM | 810 nM | 19800 nM | 25 µM | 12.5 µM | 200 µM
17 | CCC[C@H](C(=O)O)[C@H](Cc1ccc(C2CCN(C=N)C2)nc1)c1nnn[nH]1 (stereo partly drawn) [Example 410, (2S)-2-((1S)-2-(6-(1-(iminomethyl)pyrrolidin-3-yl)pyridin-3-yl)-1-(1H-tetrazol-5-yl)ethyl)pentanoic acid] | 6.23 nM | 417 nM | 6030 nM | 25 µM | 7.813 µM | 75 µM
18 | CCC[C@H](C(=O)O)[C@H](Cc1ccc(C2CCN(C(=N)N)C2)nc1)c1nnn[nH]1 (stereo partly drawn) [Example 411, (2S)-2-((1S)-2-(6-(1-carbamimidoylpyrrolidin-3-yl)pyridin-3-yl)-1-(1H-tetrazol-5-yl)ethyl)pentanoic acid] | 2.96 nM | 179 nM | 2770 nM | 12.5 µM | 4.688 µM | 50 µM
19 | CCC[C@H](C(=O)O)[C@H](Cc1ccc(C2CCNCC2)cc1)c1nnn[nH]1 [Example 412, (S)-2-((S)-2-(4-(piperidin-4-yl)phenyl)-1-(1H-tetrazol-5-yl)ethyl)pentanoic acid] | 4.49 nM | 71.4 nM | 275 nM | 12.5 µM | 9.375 µM | 9.375 µM
20 | CCC[C@H](C(=O)O)[C@H](Cc1ccc(C2CCNC2)cc1)c1nnn[nH]1 (stereo partly drawn) [Example 413, (2S)-2-((1S)-2-(4-(pyrrolidin-3-yl)phenyl)-1-(1H-tetrazol-5-yl)ethyl)pentanoic acid] | 4.6 nM | 146 nM | 1100 nM | 12.5 µM | 6.25 µM | 25 µM
21 | CCC[C@H](C(=O)O)[C@H](Cc1ccc(C2CCN(C(=N)N)C2)cc1)c1nnn[nH]1 (stereo partly drawn) [Example 414, (2S)-2-((1S)-2-(4-(1-carbamimidoylpyrrolidin-3-yl)phenyl)-1-(1H-tetrazol-5-yl)ethyl)pentanoic acid] | 1.52 nM | 69 nM | 214 nM | 12.5 µM | 4.688 µM | 9.375 µM

From US9839642B2, “Beta-tetrazolyl-propionic acids as metallo-beta-lactamase inhibitors” (priority 2014, dated 2017)
